Data as given in ChEMBL document CHEMBL1201862, “PubChem BioAssay data set” (2004).
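A five-concentration, 48-hour dose response in 96-well plates underlies each endpoint, interpolated linearly between surrounding concentrations. Abbreviation: GI50, concentration required for 50% inhibition of growth.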 Activity calls are given as the source filed them. Rule as the data show it: active = GI50 up to about 1.1 µM and inactive = higher.

Legend:
Assay in all cases: growth of human tumour cells (NCI), 48 h
786-0 = system: 786-0
ACHN = system: ACHN
BT-549 = system: BT-549
COLO 205 = system: COLO 205
MDA-N = system: MDA-N
NCI-H226 = system: NCI-H226
OVCAR-5 = system: OVCAR-5
OVCAR-8 = system: OVCAR-8
PC-3 = system: PC-3
RXF 393 = system: RXF 393
SF-539 = system: SF-539
SK-MEL-28 = system: SK-MEL-28
SK-MEL-2 = system: SK-MEL-2
SK-MEL-5 = system: SK-MEL-5
SK-OV-3 = system: SK-OV-3
SNB-75 = system: SNB-75
SW-620 = system: SW-620
TK-10 = system: TK-10
UACC-257 = system: UACC-257
HL-60 = system: HL-60

Structure (SMILES) | GI50 (786-0) | GI50 (ACHN) | GI50 (BT-549) | GI50 (COLO 205) | GI50 (MDA-N) | GI50 (NCI-H226) | GI50 (OVCAR-5) | GI50 (OVCAR-8) | GI50 (PC-3) | GI50 (RXF 393) | GI50 (SF-539) | GI50 (SK-MEL-28) | GI50 (SK-MEL-2) | GI50 (SK-MEL-5) | GI50 (SK-OV-3) | GI50 (SNB-75) | GI50 (SW-620) | GI50 (TK-10) | GI50 (UACC-257) | GI50 (HL-60)
N#CNC(=N)Nc1ccc(Cl)cc1 | > 100 µM (inactive) | > 100 µM (inactive) | > 100 µM (inactive) | > 100 µM (inactive) | > 100 µM (inactive) | 85.1 µM (inactive) | > 100 µM (inactive) | > 100 µM (inactive) | > 100 µM (inactive) | > 100 µM (inactive) | > 100 µM (inactive) | > 100 µM (inactive) | > 100 µM (inactive) | > 100 µM (inactive) | > 100 µM (inactive) | > 100 µM (inactive) | > 100 µM (inactive) | > 100 µM (inactive) | > 100 µM (inactive) | 
CN(C)CC1CCC/C(=C\c2ccc(OC(=O)c3ccc(Cl)cc3)cc2)C1=O (centres undefined) | 0.867 µM (active) | 3.57 µM (inactive) | 2.81 µM (inactive) | 1.97 µM (inactive) | 2.38 µM (inactive) | 3.06 µM (inactive) | 2.25 µM (inactive) | 1.58 µM (inactive) | 6.04 µM (inactive) |  | 3 µM (inactive) | 3.15 µM (inactive) | 4.31 µM (inactive) | 3.69 µM (inactive) | 10.3 µM (inactive) | 4.12 µM (inactive) | 1.1 µM (active) | 1.95 µM (inactive) | 4.29 µM (inactive) | 1.32 µM (inactive)
Cc1ccc(S(=O)(=O)N/N=C2/C3C(CC2(C)C)C2(C)CCCC3(C)C2O)cc1 (centres undefined) | 21.3 µM (inactive) | > 10 µM (inactive) | 14.3 µM (inactive) | 16 µM (inactive) | 20.1 µM (inactive) | 17 µM (inactive) | > 10 µM (inactive) | 32.7 µM (inactive) | 9.59 µM (inactive) |  |  | 18.9 µM (inactive) | 21 µM (inactive) | 15.5 µM (inactive) | 20.9 µM (inactive) | 17.7 µM (inactive) | > 10 µM (inactive) | 36 µM (inactive) | 16.8 µM (inactive) | 26.1 µM (inactive)
O=c1c2c(oc3ccccc13)-c1ccccc1OC2 | 24.4 µM (inactive) | 35.7 µM (inactive) | > 100 µM (inactive) | > 10 µM (inactive) | > 100 µM (inactive) | > 100 µM (inactive) | > 100 µM (inactive) | 27.9 µM (inactive) | > 100 µM (inactive) |  | 25.2 µM (inactive) |  | > 100 µM (inactive) | 44.8 µM (inactive) | 20.2 µM (inactive) | 16.7 µM (inactive) | 67.8 µM (inactive) | > 100 µM (inactive) | > 100 µM (inactive) | 
O=[N+]([O-])C(/C(Cl)=C(/Cl)N1CCOCC1)=C1\NCCO1 | > 100 µM (inactive) | > 100 µM (inactive) | > 100 µM (inactive) | > 100 µM (inactive) | > 100 µM (inactive) | > 100 µM (inactive) | > 100 µM (inactive) | > 100 µM (inactive) | > 100 µM (inactive) |  | > 100 µM (inactive) | > 100 µM (inactive) | > 100 µM (inactive) |  | > 100 µM (inactive) | > 100 µM (inactive) | > 100 µM (inactive) |  | > 100 µM (inactive) | 
COc1cc2c(cc1OCc1ccccc1)NC(=O)[C@@H]1CCCN1C2=O | > 100 µM (inactive) | > 100 µM (inactive) | > 100 µM (inactive) | > 100 µM (inactive) | > 100 µM (inactive) | > 100 µM (inactive) | > 100 µM (inactive) | > 100 µM (inactive) | > 100 µM (inactive) | 82 µM (inactive) | > 100 µM (inactive) | > 100 µM (inactive) | > 100 µM (inactive) | > 100 µM (inactive) | > 100 µM (inactive) | > 100 µM (inactive) | > 100 µM (inactive) | > 100 µM (inactive) | > 100 µM (inactive) | 
Cc1nn(C(=O)Cc2ccccc2)c2c1C(c1ccc(O)cc1O)SC(=N)N2 (centres undefined) | > 100 µM (inactive) | > 100 µM (inactive) | > 100 µM (inactive) | > 100 µM (inactive) | > 100 µM (inactive) | > 100 µM (inactive) |  | > 100 µM (inactive) | > 100 µM (inactive) |  | > 100 µM (inactive) | > 100 µM (inactive) |  | > 100 µM (inactive) | > 100 µM (inactive) | 17.2 µM (inactive) | > 100 µM (inactive) | > 100 µM (inactive) | > 100 µM (inactive) | > 100 µM (inactive)
CCOC(=O)CCC(NC(=O)Cc1ccc(Nc2nc3cc(F)c(F)cc3nc2C(=O)OCC)cc1)C(=O)OCC (centres undefined) | > 100 µM (inactive) | > 100 µM (inactive) | 51.2 µM (inactive) | > 100 µM (inactive) | > 100 µM (inactive) | > 100 µM (inactive) | > 100 µM (inactive) | 94.2 µM (inactive) | > 100 µM (inactive) |  | > 100 µM (inactive) | > 100 µM (inactive) | 23.7 µM (inactive) | > 100 µM (inactive) | > 100 µM (inactive) | 35.2 µM (inactive) | 73.6 µM (inactive) | > 100 µM (inactive) | 28.6 µM (inactive) | 21.5 µM (inactive)
Cc1oc2c(Cl)cc(O)c(Cl)c2c2cccc1-2 | 21.9 µM (inactive) | 40.6 µM (inactive) | 23.6 µM (inactive) | 30.4 µM (inactive) | 18.5 µM (inactive) | 14.2 µM (inactive) | 45.5 µM (inactive) | 23.6 µM (inactive) | 31.3 µM (inactive) |  | 20.1 µM (inactive) | 14.8 µM (inactive) | 33.3 µM (inactive) | 19.4 µM (inactive) | > 100 µM (inactive) | 2.83 µM (inactive) | 32.5 µM (inactive) | > 100 µM (inactive) | > 100 µM (inactive) | 25.8 µM (inactive)
N#Cc1c(N2CCN(c3ccc([N+](=O)[O-])cc3)CC2)[n+]([O-])c2ccc(-c3ccc([N+](=O)[O-])cc3)cc2[n+]1[O-] | > 47.8 µM (inactive) | > 49 µM (inactive) | > 100 µM (inactive) | 17.9 µM (inactive) | 31.8 µM (inactive) | 33 µM (inactive) | 30.7 µM (inactive) | 1.62 µM (inactive) | 2.55 µM (inactive) |  | 38.7 µM (inactive) | > 89.3 µM (inactive) | > 37.2 µM (inactive) | 4.18 µM (inactive) | > 100 µM (inactive) | > 26.9 µM (inactive) | 35.2 µM (inactive) | > 56.8 µM (inactive) | 16.4 µM (inactive) | 
O=C1Nc2ccccc2C1S(=O)(=O)c1ccccc1 (centres undefined) | > 100 µM (inactive) | > 100 µM (inactive) | > 100 µM (inactive) | > 100 µM (inactive) | > 100 µM (inactive) | > 100 µM (inactive) | > 100 µM (inactive) | > 100 µM (inactive) | > 100 µM (inactive) | > 100 µM (inactive) |  | > 100 µM (inactive) | > 100 µM (inactive) | > 100 µM (inactive) | > 100 µM (inactive) | > 100 µM (inactive) | > 100 µM (inactive) | > 100 µM (inactive) | > 100 µM (inactive) | 
CCNC1CC(C(C)(C)NCC)CC=C1C (centres undefined) | > 100 µM (inactive) |  | > 100 µM (inactive) | > 100 µM (inactive) | > 100 µM (inactive) |  | > 100 µM (inactive) | > 100 µM (inactive) | > 100 µM (inactive) |  | > 100 µM (inactive) | > 100 µM (inactive) |  | > 100 µM (inactive) | > 100 µM (inactive) | > 100 µM (inactive) | > 100 µM (inactive) | > 100 µM (inactive) | > 100 µM (inactive) | > 100 µM (inactive)
COC(=O)c1ccccc1C1CN=NC12Cc1c(C)cccc1C2=O (centres undefined) | > 100 µM (inactive) | > 100 µM (inactive) | > 100 µM (inactive) | > 100 µM (inactive) | > 100 µM (inactive) | > 100 µM (inactive) | 71.8 µM (inactive) | > 100 µM (inactive) |  | > 100 µM (inactive) | > 100 µM (inactive) | > 100 µM (inactive) | 48.3 µM (inactive) | 90.2 µM (inactive) | > 100 µM (inactive) | 94.4 µM (inactive) | > 100 µM (inactive) | > 100 µM (inactive) | > 100 µM (inactive) | 87.3 µM (inactive)
COCC1OC(N2C(=O)NC(=O)[C@@H]3C=C4CCCCC4=C[C@@H]32)C(OC)C1OC (some centres undefined) | > 100 µM (inactive) | > 100 µM (inactive) | > 100 µM (inactive) |  | > 100 µM (inactive) | > 100 µM (inactive) | > 100 µM (inactive) | > 100 µM (inactive) | > 100 µM (inactive) |  | > 100 µM (inactive) | > 100 µM (inactive) | > 100 µM (inactive) |  | > 100 µM (inactive) | > 100 µM (inactive) | > 100 µM (inactive) | > 100 µM (inactive) | > 100 µM (inactive) | 51.6 µM (inactive)
Cc1cc2ccccc2c[n+]1CC(O)C[n+]1cc2ccccc2cc1C | > 100 µM (inactive) | > 100 µM (inactive) | > 100 µM (inactive) | > 100 µM (inactive) | > 100 µM (inactive) | > 100 µM (inactive) | > 100 µM (inactive) | > 100 µM (inactive) | > 100 µM (inactive) | > 100 µM (inactive) | > 100 µM (inactive) | > 100 µM (inactive) | > 100 µM (inactive) | > 100 µM (inactive) |  | > 100 µM (inactive) | > 100 µM (inactive) | > 100 µM (inactive) | > 100 µM (inactive) | 
